Test results as given in patent publication US20140249143A1, “Compounds And Methods For Enhancing Innate Immune Responses” (GlaxoSmithKline LLC, priority 2011, published 2014).

How the values were obtained:
[1] = tested on: HCV genotype 1a subgenomic replicon; assay: Anti-Hepatitis C replicon assay, genotype 1a (luciferase); type: cell-based; conditions: Hepatitis C virus; luciferase activity measured 48 hours later; read-out: HCV Genotype 1A Replicon pEC50 (converted)
Method in brief: (§1)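 The 1b line is ET cells carrying the I389luc-ubi-neo/NS3-3′/ET replicon with adaptive mutations E1202G, T1280I and K1846T; the 1a line is an Apath replicon line modified with firefly luciferase. Cells were exposed 48 h to compound (final 0.03 pM–50 μM, 0.5-1% DMSO), read by Steady-Glo luciferase, and IC50 came from 10-point four-parameter logistic fits; cytotoxicity was read by CellTiter-Glo.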

[2] = tested on: HCV genotype 1b subgenomic replicon; assay: Anti-Hepatitis C replicon assay, genotype 1b (luciferase); type: cell-based; conditions: Hepatitis C virus; luciferase activity measured 48 hours later; read-out: HCV Genotype 1B Replicon pEC50 (converted)
Method in brief: as §1

FC(F)(F)c1cc(C(F)(F)F)c2ccc3nc(-c4nnco4)cn3c2n1 [Compound 1, 2-[2,4-bis(trifluoromethyl)imidazo[1,2-a]1,8-naphthyridin-8-yl]-1,3,4-oxadiazole]
EC50 [1]: 50.1 nM | EC50 [2]: 200 nM
